# Measured values reported in the supplement of paper PMC12463676, “Small-molecule dissolution of stress granules by redox modulation benefits ALS models” (Nature Chemical Biology, 2025).
# Compound: O=[As]([O-])(O)O.[K+] [potassium arsenate]
# Assay: thermal stability z-score vs DMSO; higher = more thermally stabilized by treatment
# Details: HeLa; arsenate concentration 1 mM
# Description: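 Cellular thermal proteome profiling in HeLa cells treated with 1 mM arsenate for 1 h (DMSO pretreatment), heated to ten temperatures (37-66.3 °C). Soluble protein was quantified by TMT mass spectrometry relative to DMSO controls; the thermal stability score was transformed to a z-score; mean of n = 3 experiments.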
# 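Further: each temperature applied for 3 min, abundance score taken as mean log2 fold change at the two lowest temperatures, z-score obtained by mean subtraction and division by SD.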
# UniProt P29083, sequence (P29083 whole entry): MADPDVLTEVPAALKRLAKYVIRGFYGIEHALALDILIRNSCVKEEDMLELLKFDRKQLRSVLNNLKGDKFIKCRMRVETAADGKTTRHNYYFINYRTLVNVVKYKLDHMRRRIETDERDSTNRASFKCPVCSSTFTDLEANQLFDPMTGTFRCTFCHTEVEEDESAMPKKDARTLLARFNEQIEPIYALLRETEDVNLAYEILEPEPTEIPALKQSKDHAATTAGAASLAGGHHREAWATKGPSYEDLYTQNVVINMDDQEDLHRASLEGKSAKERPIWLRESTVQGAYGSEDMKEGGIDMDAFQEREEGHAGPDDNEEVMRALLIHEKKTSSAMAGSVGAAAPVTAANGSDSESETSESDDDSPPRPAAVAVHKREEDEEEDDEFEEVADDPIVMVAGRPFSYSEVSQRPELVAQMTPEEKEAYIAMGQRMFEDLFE
# UniProt Q10570, sequence (Q10570 whole entry): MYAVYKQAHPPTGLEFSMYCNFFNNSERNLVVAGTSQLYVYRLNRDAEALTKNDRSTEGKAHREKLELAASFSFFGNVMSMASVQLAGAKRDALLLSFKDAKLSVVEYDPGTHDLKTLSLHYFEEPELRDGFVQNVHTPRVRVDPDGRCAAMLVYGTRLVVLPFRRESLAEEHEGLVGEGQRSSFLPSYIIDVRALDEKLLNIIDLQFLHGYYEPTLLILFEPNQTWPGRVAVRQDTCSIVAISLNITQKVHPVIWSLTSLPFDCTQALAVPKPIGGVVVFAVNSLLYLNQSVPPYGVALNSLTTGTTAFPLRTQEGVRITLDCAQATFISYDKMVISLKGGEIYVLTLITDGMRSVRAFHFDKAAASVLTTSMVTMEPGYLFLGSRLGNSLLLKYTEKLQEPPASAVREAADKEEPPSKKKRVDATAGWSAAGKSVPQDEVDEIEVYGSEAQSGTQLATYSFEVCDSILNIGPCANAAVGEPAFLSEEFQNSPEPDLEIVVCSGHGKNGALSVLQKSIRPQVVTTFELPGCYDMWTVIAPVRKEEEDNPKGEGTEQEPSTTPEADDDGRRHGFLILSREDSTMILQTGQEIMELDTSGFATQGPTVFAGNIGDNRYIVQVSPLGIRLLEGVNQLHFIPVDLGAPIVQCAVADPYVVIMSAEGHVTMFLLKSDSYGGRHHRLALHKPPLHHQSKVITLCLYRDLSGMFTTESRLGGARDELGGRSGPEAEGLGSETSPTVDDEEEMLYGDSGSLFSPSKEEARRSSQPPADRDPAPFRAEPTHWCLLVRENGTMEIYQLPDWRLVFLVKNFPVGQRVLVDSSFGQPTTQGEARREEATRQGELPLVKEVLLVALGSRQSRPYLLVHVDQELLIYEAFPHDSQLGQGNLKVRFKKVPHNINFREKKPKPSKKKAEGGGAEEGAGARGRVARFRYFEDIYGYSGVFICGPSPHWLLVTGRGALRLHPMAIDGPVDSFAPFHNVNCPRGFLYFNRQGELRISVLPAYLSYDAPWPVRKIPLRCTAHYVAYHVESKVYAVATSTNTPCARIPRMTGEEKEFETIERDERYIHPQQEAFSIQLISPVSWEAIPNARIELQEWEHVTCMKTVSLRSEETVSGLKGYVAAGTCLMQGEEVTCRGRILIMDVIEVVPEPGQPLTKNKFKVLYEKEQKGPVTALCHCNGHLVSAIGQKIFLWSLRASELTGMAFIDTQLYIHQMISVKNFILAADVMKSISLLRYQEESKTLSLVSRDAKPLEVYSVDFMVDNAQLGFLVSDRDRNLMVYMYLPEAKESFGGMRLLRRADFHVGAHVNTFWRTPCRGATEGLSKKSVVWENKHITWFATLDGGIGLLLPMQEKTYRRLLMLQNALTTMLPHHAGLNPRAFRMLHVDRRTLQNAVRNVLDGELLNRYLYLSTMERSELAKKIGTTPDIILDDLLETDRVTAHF
# UniProt Q12974, sequence (Q12974 whole entry): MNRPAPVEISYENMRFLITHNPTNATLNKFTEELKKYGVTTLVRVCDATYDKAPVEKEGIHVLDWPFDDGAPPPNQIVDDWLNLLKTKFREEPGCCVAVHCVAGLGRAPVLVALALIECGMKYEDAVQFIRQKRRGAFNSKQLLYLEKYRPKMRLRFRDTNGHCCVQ
# UniProt Q8TDN6, sequence (Q8TDN6 whole entry): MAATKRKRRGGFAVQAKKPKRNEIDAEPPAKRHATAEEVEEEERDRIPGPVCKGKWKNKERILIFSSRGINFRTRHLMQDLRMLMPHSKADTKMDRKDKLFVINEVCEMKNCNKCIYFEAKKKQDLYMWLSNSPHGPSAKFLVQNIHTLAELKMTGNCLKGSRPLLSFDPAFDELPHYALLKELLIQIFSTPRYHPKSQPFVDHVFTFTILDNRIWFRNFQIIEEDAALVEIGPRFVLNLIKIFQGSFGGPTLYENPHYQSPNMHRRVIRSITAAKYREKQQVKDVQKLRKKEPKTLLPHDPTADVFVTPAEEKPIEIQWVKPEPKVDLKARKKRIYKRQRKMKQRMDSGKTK
# UniProt O95363, sequence (O95363 whole entry): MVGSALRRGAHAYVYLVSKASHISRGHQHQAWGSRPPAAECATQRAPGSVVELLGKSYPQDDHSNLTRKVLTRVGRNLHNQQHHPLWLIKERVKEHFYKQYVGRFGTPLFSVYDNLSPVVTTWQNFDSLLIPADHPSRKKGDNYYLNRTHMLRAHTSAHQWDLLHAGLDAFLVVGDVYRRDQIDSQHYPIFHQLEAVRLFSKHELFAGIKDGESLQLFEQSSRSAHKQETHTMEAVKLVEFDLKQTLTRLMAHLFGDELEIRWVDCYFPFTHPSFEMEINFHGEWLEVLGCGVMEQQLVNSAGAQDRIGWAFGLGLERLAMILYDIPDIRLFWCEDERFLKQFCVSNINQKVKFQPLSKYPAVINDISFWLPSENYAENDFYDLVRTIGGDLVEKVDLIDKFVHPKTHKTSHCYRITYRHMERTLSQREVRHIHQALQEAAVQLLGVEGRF
# UniProt Q8WWV3, sequence (Q8WWV3 whole entry): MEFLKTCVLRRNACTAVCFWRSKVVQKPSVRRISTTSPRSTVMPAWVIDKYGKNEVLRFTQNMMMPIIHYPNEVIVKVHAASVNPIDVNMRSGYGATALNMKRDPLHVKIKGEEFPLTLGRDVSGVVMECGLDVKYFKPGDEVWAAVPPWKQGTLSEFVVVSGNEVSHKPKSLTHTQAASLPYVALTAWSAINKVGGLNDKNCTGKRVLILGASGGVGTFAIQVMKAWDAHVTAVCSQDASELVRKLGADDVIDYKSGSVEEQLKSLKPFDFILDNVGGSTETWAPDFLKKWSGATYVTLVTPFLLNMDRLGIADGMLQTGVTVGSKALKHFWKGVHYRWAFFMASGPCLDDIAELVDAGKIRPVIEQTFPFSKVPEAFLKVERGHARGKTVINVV
# UniProt P07686, sequence (P07686 whole entry): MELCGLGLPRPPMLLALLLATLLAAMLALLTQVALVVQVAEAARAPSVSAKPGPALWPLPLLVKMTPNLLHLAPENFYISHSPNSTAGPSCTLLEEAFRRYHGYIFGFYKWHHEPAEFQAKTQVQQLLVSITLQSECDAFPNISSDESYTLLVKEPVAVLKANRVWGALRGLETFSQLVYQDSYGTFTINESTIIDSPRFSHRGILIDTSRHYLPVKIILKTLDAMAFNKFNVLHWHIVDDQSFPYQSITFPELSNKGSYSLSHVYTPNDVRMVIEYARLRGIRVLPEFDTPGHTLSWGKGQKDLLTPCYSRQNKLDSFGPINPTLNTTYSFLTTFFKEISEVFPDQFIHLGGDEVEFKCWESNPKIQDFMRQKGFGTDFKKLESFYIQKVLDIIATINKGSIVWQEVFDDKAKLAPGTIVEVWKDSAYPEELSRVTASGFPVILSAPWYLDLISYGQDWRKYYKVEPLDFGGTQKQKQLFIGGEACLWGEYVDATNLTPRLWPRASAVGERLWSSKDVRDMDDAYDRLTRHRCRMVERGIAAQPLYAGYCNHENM
# UniProt Q9UBK8, sequence (Q9UBK8 whole entry): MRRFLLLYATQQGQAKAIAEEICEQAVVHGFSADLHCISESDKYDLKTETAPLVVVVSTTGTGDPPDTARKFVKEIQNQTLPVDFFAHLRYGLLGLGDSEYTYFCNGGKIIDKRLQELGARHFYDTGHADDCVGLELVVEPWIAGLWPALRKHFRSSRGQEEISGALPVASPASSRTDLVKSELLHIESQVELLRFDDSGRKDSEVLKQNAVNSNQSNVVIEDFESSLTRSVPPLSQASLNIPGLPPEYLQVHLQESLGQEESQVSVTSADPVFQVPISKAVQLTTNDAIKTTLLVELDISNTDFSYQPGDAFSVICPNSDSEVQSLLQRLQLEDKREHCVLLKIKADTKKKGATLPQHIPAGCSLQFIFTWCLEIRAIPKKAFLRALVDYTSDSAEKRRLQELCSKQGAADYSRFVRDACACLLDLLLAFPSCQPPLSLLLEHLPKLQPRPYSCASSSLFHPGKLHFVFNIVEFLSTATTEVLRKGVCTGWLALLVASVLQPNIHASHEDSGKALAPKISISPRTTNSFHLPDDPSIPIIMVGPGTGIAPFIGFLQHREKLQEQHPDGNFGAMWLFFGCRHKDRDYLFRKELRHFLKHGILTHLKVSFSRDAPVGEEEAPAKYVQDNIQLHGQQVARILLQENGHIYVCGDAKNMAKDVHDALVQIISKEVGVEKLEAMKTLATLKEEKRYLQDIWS
# UniProt Q969G6, sequence (Q969G6 whole entry): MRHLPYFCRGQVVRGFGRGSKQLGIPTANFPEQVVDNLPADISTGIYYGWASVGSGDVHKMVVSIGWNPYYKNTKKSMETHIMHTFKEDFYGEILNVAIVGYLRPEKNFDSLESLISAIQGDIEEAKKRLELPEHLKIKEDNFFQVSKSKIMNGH
# UniProt Q9BUE6, sequence (Q9BUE6 whole entry): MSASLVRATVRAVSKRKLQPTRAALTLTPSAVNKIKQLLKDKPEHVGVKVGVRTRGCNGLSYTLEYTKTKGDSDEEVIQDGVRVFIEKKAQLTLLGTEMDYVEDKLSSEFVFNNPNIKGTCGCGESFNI
# UniProt Q04760, sequence (Q04760 whole entry, looked up): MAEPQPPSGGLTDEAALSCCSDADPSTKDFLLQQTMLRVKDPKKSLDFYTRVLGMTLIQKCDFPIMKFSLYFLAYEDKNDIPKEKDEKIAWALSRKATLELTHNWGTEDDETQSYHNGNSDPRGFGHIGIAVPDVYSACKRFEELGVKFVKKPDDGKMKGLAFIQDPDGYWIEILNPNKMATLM
row,Target,thermal stability z-score
1,GLO1 (UniProt Q04760),1.62
2,DIDO1 (UniProt Q9BTC0),-1.37
3,PTP4A2 (UniProt Q12974),0.861
4,NSUN6 (UniProt Q8TEA1),-0.526
5,PKP2 (UniProt Q99959),-0.371
6,LCLAT1 (UniProt Q6UWP7),-2.38
7,GABPA (UniProt Q06546),4.54
8,PGM2L1 (UniProt Q6PCE3),0.314
9,CACTIN (UniProt Q8WUQ7),-0.0248
10,NFIC (UniProt P08651),-0.494
11,LUC7L3 (UniProt O95232),-0.899
12,BRIX1 (UniProt Q8TDN6),1.3
13,RELA (UniProt Q04206),0.374
14,RFK (UniProt Q969G6),0.313
15,MTRR (UniProt Q9UBK8),0.111
16,USP22 (UniProt Q9UPT9),0.237
17,TST (UniProt Q16762),1
18,RSBN1 (UniProt Q5VWQ0),-0.387
19,POLR2I (UniProt P36954),-2.41
20,LRRC8A (UniProt Q8IWT6),-0.275
21,CNOT11 (UniProt Q9UKZ1),0.0729
22,UBE2T (UniProt Q9NPD8),-0.137
23,RTN4IP1 (UniProt Q8WWV3),0.0315
24,ORC5 (UniProt O43913),-0.065
25,C15ORF38|ARPIN,0.206
26,PRSS21 (UniProt Q9Y6M0),1.03
27,KCTD3 (UniProt Q9Y597),-0.15
28,HEXB (UniProt P07686),0.149

row,Target,thermal stability z-score
1,XPO5 (UniProt Q9HAV4),-0.103
2,CLASRP (UniProt Q8N2M8),0.14
3,MRPL50 (UniProt Q8N5N7),1.42
4,DERL2 (UniProt Q9GZP9),0.0606
5,MARK2 (UniProt Q7KZI7),0.0503
6,STT3A (UniProt P46977),-0.218
7,CBFB (UniProt Q13951),0.352
8,CSTF3 (UniProt Q12996),-0.661
9,GPATCH8 (UniProt Q9UKJ3),-0.238
10,GTF2E1 (UniProt P29083),0.733
11,RAB1A (UniProt P62820),0.312
12,CPSF1 (UniProt Q10570),-0.123
13,ERCC6L (UniProt Q2NKX8),0.265
14,SHMT1 (UniProt P34896),0.764
15,HUWE1 (UniProt Q7Z6Z7),0.187
16,PPA1 (UniProt Q15181),-0.342
17,ISCA1 (UniProt Q9BUE6),0.178
18,CYTH1 (UniProt Q15438),0.0222
19,METAP2 (UniProt P50579),0.409
20,ITPA (UniProt Q9BY32),0.199
21,SBNO1 (UniProt A3KN83),0.146
22,SCFD2 (UniProt Q8WU76),0.043
23,SMNDC1 (UniProt O75940),-0.5
24,STX8 (UniProt Q9UNK0),0.248
25,FARS2 (UniProt O95363),-0.701
26,PLCL2 (UniProt Q9UPR0),-0.417
27,RTTN (UniProt Q86VV8),-0.117

# Compound: NC(=O)CCCCC1CCSS1 [lipoamide]
# Assay: as above
# Details: HeLa; lipoamide concentration 100 µM; arsenate co-treatment: 1 mM arsenate 1 h
# Description: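 Cellular thermal proteome profiling in HeLa cells. Cells were treated with 100 µM lipoamide for 1 h, with or without 1 mM arsenate for a further 1 h, then heated to ten temperatures (37-66.3 °C), and soluble protein was quantified by TMT mass spectrometry relative to 0.1% DMSO controls. The thermal stability score (sum of log2 fold changes minus the abundance score) was transformed to a z-score; mean of n = 3 experiments.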
row,Target,thermal stability z-score
1,GLO1 (UniProt Q04760),1.12
2,DIDO1 (UniProt Q9BTC0),0.835
3,PTP4A2 (UniProt Q12974),1.78
4,NSUN6 (UniProt Q8TEA1),-0.141
5,PKP2 (UniProt Q99959),0.0483
6,LCLAT1 (UniProt Q6UWP7),1.1
7,GABPA (UniProt Q06546),-0.201
8,PGM2L1 (UniProt Q6PCE3),0.405
9,CACTIN (UniProt Q8WUQ7),-0.265
10,NFIC (UniProt P08651),0.26
11,LUC7L3 (UniProt O95232),-1.15
12,BRIX1 (UniProt Q8TDN6),0.442
13,RELA (UniProt Q04206),0.384
14,RFK (UniProt Q969G6),-0.697
15,MTRR (UniProt Q9UBK8),0.00117
16,USP22 (UniProt Q9UPT9),-0.374
17,TST (UniProt Q16762),0.729
18,RSBN1 (UniProt Q5VWQ0),-0.421
19,POLR2I (UniProt P36954),1.79
20,LRRC8A (UniProt Q8IWT6),0.614
21,CNOT11 (UniProt Q9UKZ1),-0.0705
22,UBE2T (UniProt Q9NPD8),0.245
23,RTN4IP1 (UniProt Q8WWV3),-0.324
24,ORC5 (UniProt O43913),-0.0478
25,C15ORF38|ARPIN,-0.167
26,PRSS21 (UniProt Q9Y6M0),-3
27,KCTD3 (UniProt Q9Y597),0.366
28,HEXB (UniProt P07686),-0.421

row,Target,thermal stability z-score
1,XPO5 (UniProt Q9HAV4),-0.576
2,CLASRP (UniProt Q8N2M8),-0.693
3,MRPL50 (UniProt Q8N5N7),1.2
4,DERL2 (UniProt Q9GZP9),-0.00701
5,MARK2 (UniProt Q7KZI7),-0.0322
6,STT3A (UniProt P46977),-2.6
7,CBFB (UniProt Q13951),-0.0158
8,CSTF3 (UniProt Q12996),0.159
9,GPATCH8 (UniProt Q9UKJ3),1.48
10,GTF2E1 (UniProt P29083),-0.0787
11,RAB1A (UniProt P62820),0.28
12,CPSF1 (UniProt Q10570),0.324
13,ERCC6L (UniProt Q2NKX8),-0.457
14,SHMT1 (UniProt P34896),0.374
15,HUWE1 (UniProt Q7Z6Z7),-0.216
16,PPA1 (UniProt Q15181),1.07
17,ISCA1 (UniProt Q9BUE6),-0.00815
18,CYTH1 (UniProt Q15438),-0.178
19,METAP2 (UniProt P50579),0.0427
20,ITPA (UniProt Q9BY32),0.939
21,SBNO1 (UniProt A3KN83),0.158
22,SCFD2 (UniProt Q8WU76),0.0156
23,SMNDC1 (UniProt O75940),-0.102
24,STX8 (UniProt Q9UNK0),-0.198
25,FARS2 (UniProt O95363),-0.386
26,PLCL2 (UniProt Q9UPR0),-0.2
27,RTTN (UniProt Q86VV8),-0.0275

# Same assay, conditions: HeLa; lipoamide concentration 100 µM; arsenate co-treatment: none
row,Target,thermal stability z-score
1,GLO1 (UniProt Q04760),0.739
2,DIDO1 (UniProt Q9BTC0),0.516
3,PTP4A2 (UniProt Q12974),1.15
4,NSUN6 (UniProt Q8TEA1),-0.366
5,PKP2 (UniProt Q99959),-0.112
6,LCLAT1 (UniProt Q6UWP7),0.0592
7,GABPA (UniProt Q06546),-0.185
8,PGM2L1 (UniProt Q6PCE3),0.129
9,CACTIN (UniProt Q8WUQ7),-0.163
10,NFIC (UniProt P08651),0.173
11,LUC7L3 (UniProt O95232),-0.26
12,BRIX1 (UniProt Q8TDN6),-0.0247
13,RELA (UniProt Q04206),0.867
14,RFK (UniProt Q969G6),-0.27
15,MTRR (UniProt Q9UBK8),-0.531
16,USP22 (UniProt Q9UPT9),0.131
17,TST (UniProt Q16762),-0.00911
18,RSBN1 (UniProt Q5VWQ0),-0.198
19,POLR2I (UniProt P36954),0.367
20,LRRC8A (UniProt Q8IWT6),0.234
21,CNOT11 (UniProt Q9UKZ1),0.0824
22,UBE2T (UniProt Q9NPD8),0.447
23,RTN4IP1 (UniProt Q8WWV3),-0.26
24,ORC5 (UniProt O43913),0.0761
25,C15ORF38|ARPIN,0.382
26,PRSS21 (UniProt Q9Y6M0),-2.45
27,KCTD3 (UniProt Q9Y597),0.263
28,HEXB (UniProt P07686),-0.254

row,Target,thermal stability z-score
1,XPO5 (UniProt Q9HAV4),-0.108
2,CLASRP (UniProt Q8N2M8),-0.133
3,MRPL50 (UniProt Q8N5N7),0.662
4,DERL2 (UniProt Q9GZP9),-0.0318
5,MARK2 (UniProt Q7KZI7),0.0698
6,STT3A (UniProt P46977),-1.98
7,CBFB (UniProt Q13951),-0.159
8,CSTF3 (UniProt Q12996),0.0381
9,GPATCH8 (UniProt Q9UKJ3),0.761
10,GTF2E1 (UniProt P29083),0.126
11,RAB1A (UniProt P62820),0.338
12,CPSF1 (UniProt Q10570),0.168
13,ERCC6L (UniProt Q2NKX8),-0.258
14,SHMT1 (UniProt P34896),-0.0345
15,HUWE1 (UniProt Q7Z6Z7),0.0195
16,PPA1 (UniProt Q15181),0.424
17,ISCA1 (UniProt Q9BUE6),0.577
18,CYTH1 (UniProt Q15438),0.00951
19,METAP2 (UniProt P50579),0.326
20,ITPA (UniProt Q9BY32),0.734
21,SBNO1 (UniProt A3KN83),0.686
22,SCFD2 (UniProt Q8WU76),-0.09
23,SMNDC1 (UniProt O75940),-0.117
24,STX8 (UniProt Q9UNK0),0.507
25,FARS2 (UniProt O95363),-0.359
26,PLCL2 (UniProt Q9UPR0),-0.373
27,RTTN (UniProt Q86VV8),-0.0536
